Here are results for 5 compounds from patent US5626864A, “Preparation of colloidal aqueous solutions of active substances of low solubility” (priority 1993, dated 1997).

The solubility is the dissolved amount per volume that the medium holds.

Converted amounts (≈) assume the structure as drawn. Structures can show the parent of a compound that is named as a salt. Where two headings read alike, the source gives them in different places. Bounds are passed on as bounds.

Data set [1] in a line: Sterile filtration through a 0.2 μm filter (criterion for successful solubilization). The class given is physicochemical. The protocol:
The following examples illustrate the invention. The criterion for successful solubilization is the possibility of sterile filtration through a 0.2 μm filter.
(§1) 40 mg of Z were dissolved in 10 ml of dichloromethane/methanol (9+1). All the solvent was removed again from the solution in a rotary evaporator under reduced pressure. 8 ml of a buffer solution (consisting of o-phsophoric acid [0.01 M] and sucrose [0.265 M] and EDTA disodium salt [0.1 mg/ml], pH about 1.9) were added to the residue, and the flask was rotated on the rotary evaporator (without reducing the pressure) with the water at 50° C for 1 h. […] Cooling to room temperature was followed by titration with 2 molar sodium hydroxide solution to pH 6.8, and the total volume was then made up to 10 ml with the abovementioned buffer solution (pH 6.8; titrated with NaOH). […] The clear supernatant was filtered through a 0.2 micrometer syringe filter, and the active substance concentration in this solution was determined by spectrophotometry.
(§2) The experiment was carried out like experiment A but 1.0 g of phospholipid (egg lecithin E 100, from Lipoid KG, Ludwigshafen) was weighed in addition to the active substance.
(§3) The experiment was carried out like experiment B, but after addition of the buffer solution (pH 1.9) and stirring at 50° C. (1 h), 100 microliters of a dilute aqueous solution of glacial acetic acid (120.1 g/l) were added, and this solution was then titrated to pH 4.6 with sodium hydroxide solution (2 molar).
The pH was adjusted to 4.8.

Data set [2] can be described thus: Physical stability of the solutions (precipitation / flocculation). The format is physicochemical. How it is done:
as §1, with “spectrophotometry. The active substance content in this solution was below 0.1 mg/ml.” for “spectrophotometry.”
as §2
The active substance content of the solution which had been titrated to pH 6.8 and sterilized by filtration was 4.0 mg/ml. The solution slowly flocculated out after about 12-24 h, both at room temperature and in a refrigerator.
as §3

A short description of data set [3]: Active substance content of solution after 0.2 μm filtration (spectrophotometry). The class given is physicochemical. The protocol: A derivative of these bisnaphthalimides [drawing 1] was used to investigate the solubility in aqueous formulations as follows: […]
as §1, with “spectrophotometry. The active substance content in this solution was below 0.1 mg/ml.” for “spectrophotometry.”
as §2, §3

The conditions of data set [4]: cited from earlier work.
For data set [5] the following is noted: eg. intravenous administration; cited from earlier work.
[6] abbreviates: Comparative Example: like Example 1, experiment C.

Turning to `O=C(C(c1ccccc1)c1ccccc1)N1CCN(CC(O)COc2cccc3ncccc23)CC1` (stereo not drawn), in data set [1], the sterile filtration entry is listed as “It was possible to sterilize the resulting solution by filtration”.
Take `O=C1c2cccc3cc([N+](=O)[O-])cc(c23)C(=O)N1CCCCNCCCN1C(=O)c2cccc3cc([N+](=O)[O-])cc(c23)C1=O` [Z]: the “dissolution in acidic buffer” value in data set [2] (Experiment A: buffer pH about 1.9, 50° C, 1 h, no phospholipid) was “It was possible in this way to dissolve a considerable portion of the active substance”. The precipitation on titration result in data set [2] (Experiment A: no phospholipid, cooled, titrated to pH 6.8) is on record as “Most of the active substance precipitated again”. Moreover, in data set [2] (Experiment B: egg lecithin, pH 6.8, room temperature and refrigerator), the “time to flocculation of solution” value lay in the range of 12 to 24 h. Further, the stability of solution result in data set [2] (Experiment C: egg lecithin, pH 4.6, room temperature and refrigerator) is given as “stable for weeks without flocculating out”. The solubility in data set [3] (Experiment C: egg lecithin E 100, acetic acid, titrated to pH 4.6, sterile filtration) was 4000 µg/mL (≈ 6.72 mM); in data set [3] (egg lecithin e 100 solution, Experiment B (comparative): 1.0 g egg lecithin E 100, titrated to pH 6.8, sterilized by filtration), 4000 µg/mL (≈ 6.72 mM); in data set [3] (sucrose/phosphoric acid buffer, Experiment A (comparative): no phospholipid, sucrose/phosphoric acid, titrated to pH 6.8, 0.2 μm filtered) it was less than 100 µg/mL.
Take `CCS(=O)(=O)Oc1ccc2c(C)c(C)c(=O)oc2c1` [esuprone]: in data set [1] (setting [6]), the “filtration through 0.2 μm or 0.45 μm filter” value is reported as “could not be filtered either through a 0.2 μm filter or through a 0.45 μm filter” and the “particle size of resulting solution” value is reported as “contained large colloidal particles”. For the same compound, the solubility in water in data set [4] (water) was 15 µg/mL (≈ 0.0531 mM).
As to `CC(C)[C@@](C#N)(CCCN(C)CCc1ccccc1)c1ccccc1` [levemopamil hydrochloride], the “local intolerance on administration” value in data set [5] is “show problems due to local intolerance on administration (eg. vein irritation on intravenous administration)”. Further, the solubility in water entry in data set [4] (in words) is listed as “adequately soluble in water”.
On to dolastatin 15, for which, in data set [1] (Example 3: active substance 10 mg/ml, phospholipid 100 mg/ml), the sterile filtration result is “It was possible to sterilize the solution by filtration”. Besides, the solubility in water result in data set [4] (in words) is given as “low solubility in water”.
